Measurements from patent US11712438B2, “Phenyl derivatives as PGE2 receptor modulators” (IDORSIA PHARMACEUTICALS LTD, priority 2017, dated 2023).

How the values were obtained:
[1] = molecular target: PTGER2 (EP2) (Homo sapiens, UniProt P43116); test: cell-based
[2] = molecular target: PTRGER4 (EP4) (Homo sapiens, UniProt P35408); test: cell-based;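 note: assay plate preincubated 15 min at 37 °C, after which PGE2 was added at 20 nM final and incubation continued 120 min at 37 °C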
Chain of PTRGER4 (EP4) (P35408 whole entry): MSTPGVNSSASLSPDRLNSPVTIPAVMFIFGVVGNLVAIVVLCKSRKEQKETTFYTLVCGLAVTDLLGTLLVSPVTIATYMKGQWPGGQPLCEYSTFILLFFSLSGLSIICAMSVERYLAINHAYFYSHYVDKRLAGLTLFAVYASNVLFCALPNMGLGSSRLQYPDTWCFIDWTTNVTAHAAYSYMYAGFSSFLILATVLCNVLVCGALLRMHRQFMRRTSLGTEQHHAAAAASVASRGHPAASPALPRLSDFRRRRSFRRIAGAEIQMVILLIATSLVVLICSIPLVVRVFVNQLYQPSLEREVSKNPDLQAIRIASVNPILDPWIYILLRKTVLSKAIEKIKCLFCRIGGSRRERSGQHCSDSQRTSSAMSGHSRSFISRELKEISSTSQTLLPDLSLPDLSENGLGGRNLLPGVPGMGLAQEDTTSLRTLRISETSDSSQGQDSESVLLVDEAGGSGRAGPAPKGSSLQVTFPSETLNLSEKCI

Chain of PTGER2 (EP2) (P43116 whole entry): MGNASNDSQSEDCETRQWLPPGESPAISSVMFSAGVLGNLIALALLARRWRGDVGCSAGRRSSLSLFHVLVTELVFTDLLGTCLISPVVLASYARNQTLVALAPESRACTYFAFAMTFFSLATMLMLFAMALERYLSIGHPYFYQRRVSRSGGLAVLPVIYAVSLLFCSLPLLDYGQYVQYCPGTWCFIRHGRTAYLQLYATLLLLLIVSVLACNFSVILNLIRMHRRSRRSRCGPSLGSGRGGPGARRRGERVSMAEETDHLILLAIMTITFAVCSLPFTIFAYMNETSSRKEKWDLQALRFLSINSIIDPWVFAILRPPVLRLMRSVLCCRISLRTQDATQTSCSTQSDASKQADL

Row | Structure (SMILES) | IC50 [1] [nM] | IC50 [2] [nM]
1 | Fc1cc(Br)cc(F)c1CCNc1cc(-c2ccc3cc[nH]c3c2)ncn1 [Example 170, [2-(4-Bromo-2,6-difluoro-phenyl)-ethyl]-[6-(1H-indol-6yl)-pyrimidin-4-yl]amine] | 424 | 746
2 | CCOc1cc(-c2cc(NCCc3c(F)cc(Br)cc3F)ncn2)ccc1C1(C(=O)O)CC1 [Example 171, 1-(4-{6-[2-(4-Bromo-2,6-difluoro-phenyl)-ethylamino]-pyrimidin-4-yl}-2-ethoxy-phenyl)-cyclopropanecarboxylic acid] | 680 | 582
3 | COc1ccc(SC)cc1CCNc1cc(-c2ccc(C(=O)O)c(OC3CCC3)c2)ncn1 [Example 173, 2-Cyclobutoxy-4-{6-[2-(2-methoxy-5-methylsulfanyl-phenyl)-ethylamino]pyrimidin-4-yl}-benzoic acid] | 107 | 519
4 | CCOc1cc(-c2cc(NCCc3c(F)cc(Br)cc3F)ncn2)ccc1NCC(=O)O [Example 182, (4-{6-[2-(4-Bromo-2,6-difluoro-phenyl)-ethylamino]-pyrimidin-4-yl}-2-ethoxy-phenylamino)-acetic acid] | 163 | 208
5 | COc1cc(C)c(C)cc1CCNc1cc(-c2ccc(C(=O)O)c(OC3CCC3)c2)ncn1 [Example 188, 2-Cyclobutoxy-4-{6-[2-(2-methoxy-4,5-dimethyl-phenyl)-ethylamino]-pyrimidin-4-yl}-benzoic acid] | 179 | 117
6 | CCCc1cc(-c2cc(NCCc3cc(C)c(C)cc3OC)ncn2)ccc1C(=O)O [Example 189] | 295 | 338
7 | CCOc1cc(-c2cc(NCCc3cc(C)c(C)cc3OC)ncn2)cc(F)c1CC(=O)O [Example 193, (2-Ethoxy-6-fluoro-4-{6-[2-(2-methoxy-4,5-dimethyl-phenyl)-ethylamino]-pyrimidin-4-yl}-phenyl)-acetic acid] | 797 | 159
8 | CCCOc1cc(-c2cc(NCCc3cc(C)c(C)cc3OC)ncn2)ccc1CC(=O)O [Example 194, (4-{6-[2-(2-Methoxy-4,5-dimethyl-phenyl)-ethylamino]-pyrimidin-4-yl}-2-propoxy-phenyl)-acetic acid] | 548 | 207
9 | CCCc1cc(-c2cc(NCCc3cc(Cl)c(C(F)(F)F)cc3OC)ncn2)ccc1C(=O)O [Example 197, 4-{6-[2-(5-Chloro-2-methoxy-4-trifluoromethyl-phenyl)-ethylamino]-pyrimidin-4-yl}-2-propyl-benzoic acid] | 539 | 163
10 | CCOc1cc(-c2cc(NCCc3c(C)cc(C)cc3OC)ncn2)ccc1CC(=O)O [Example 202, (2-Ethoxy-4-{6-[2-(2-methoxy-4,6-dimethyl-phenyl)-ethylamino]-pyrimidin-4-yl}-phenyl)-acetic acid] | 597 | 365
11 | CCOc1cc(-c2cc(NCCc3ccc(C(F)(F)F)cc3OC)ncn2)ccc1C(=O)O [Example 205, 2-Ethoxy-4-{6-[2-(2-methoxy-4-trifluoromethyl-phenyl)-ethylamino]-pyrimidin-4-yl}-benzoic acid] | 966 | 681
12 | COc1cc(C(F)(F)F)ccc1CCNc1cc(-c2ccc(C(=O)O)c(SC)c2)ncn1 [Example 206, 4-{6-[2-(2-Methoxy-4-trifluoromethyl-phenyl)-ethylamino]-pyrimidin-4-yl}-2-methylsulfanyl-benzoic acid] | 315 | 372
13 | CCCc1cc(-c2cc(NCCc3ccc(C(F)(F)F)cc3OC)ncn2)ccc1C(=O)O [Example 207, 4-{6-[2-(2-Methoxy-4-trifluoromethyl-phenyl)-ethylamino]-pyrimidin-4-yl}-2-propyl-benzoic acid] | 721 | 491
14 | COc1cc(OC(F)F)ccc1CCNc1cc(-c2ccc(C(=O)O)c(SC)c2)ncn1 [Example 221, 4-{6-[2-(4-Difluoromethoxy-2-methoxy-phenyl)-ethylamino]-pyrimidin-4-yl}-2-methylsulfanyl-benzoic acid] | 92 | 268
15 | CCOc1cc(-c2cc(NCCc3c(F)cc(C(F)(F)F)cc3OC)ncn2)ccc1C(=O)O [Example 226, 2-Ethoxy-4-{6-[2-(2-fluoro-6-methoxy-4-trifluoromethyl-phenyl)-ethylamino]-pyrimidin-4-yl}-benzoic acid] | 907 | 273

More lines, in order of falling IC50 [1], values ahead:

Row | IC50 [1] [nM] | IC50 [2] [nM] | Structure (SMILES)
16 | 837 | 269 | CCOc1cc(-c2cc(NCCc3cc(Cl)c(C(F)(F)F)cc3OC)ncn2)ccc1C(=O)O [Example 195, 4-{6-[2-(5-Chloro-2-methoxy-4-trifluoromethyl-phenyl)-ethylamino]-pyrimidin-4-yl}-2-ethoxy-benzoic acid]
17 | 695 | 661 | CCOc1cc(-c2cc(NCCc3cc(F)c(C(F)F)cc3OC)ncn2)ccc1C(=O)O [Example 183, 4-{6-[2-(4-Difluoromethyl-5-fluoro-2-methoxy-phenyl)-ethylamino]-pyrimidin-4-yl}-2-ethoxy-benzoic acid]
18 | 690 | 917 | CSc1cc(-c2cc(NCCc3ccc(C(F)(F)F)cc3OC(F)F)ncn2)ccc1C(=O)O [Example 218, 4-{6-[2-(2-Difluoromethoxy-4-trifluoromethyl-phenyl)-ethylamino]-pyrimidin-4-yl}-2-methylsulfanyl-benzoic acid]
19 | 502 | 777 | CCOc1cc(-c2cc(NCCc3c(F)cc(OC)cc3F)ncn2)ccc1C(=O)O [Example 228, 4-{6-[2-(2,6-Difluoro-4-methoxy-phenyl)-ethylamino]-pyrimidin-4-yl}-2-ethoxy-benzoic acid]
20 | 486 | 181 | CCOc1cc(-c2cc(NCCc3cc(C)c(C)cc3OC)ncn2)ccc1CC(=O)O [Example 190, (2-Ethoxy-4-{6-[2-(2-methoxy-4,5-dimethyl-phenyl)-ethylamino]-pyrimidin-4-yl}-phenyl)-acetic acid]
21 | 440 | 401 | CCCc1cc(-c2cc(NCCc3c(F)cc(Br)cc3F)ncn2)ccc1C1(C(=O)O)CC1 [Example 172, 1-(4-{6-[2-(4-Bromo-2,6-difluoro-phenyl)-ethylamino]-pyrimidin-4-yl}-2-propyl-phenyl)-cyclopropanecarboxylic acid]
22 | 433 | 699 | CCCOc1cc(-c2cc(NCCc3c(C)cc(C)cc3OC)ncn2)ccc1CC(=O)O [Example 204, (4-{6-[2-(2-Methoxy-4,6-dimethyl-phenyl)-ethylamino]-pyrimidin-4-yl}-2-propoxy-phenyl)-acetic acid]
23 | 401 | 839 | CCOc1cc(-c2cc(NCCc3ccc(OC(F)F)cc3OC)ncn2)ccc1C(=O)O [Example 220, 4-{6-[2-(4-Difluoromethoxy-2-methoxy-phenyl)-ethylamino]-pyrimidin-4-yl}-2-ethoxy-benzoic acid]
24 | 380 | 193 | CCCc1cc(-c2cc(NCCc3cc(C)c(C)cc3OC)ncn2)ccc1CC(=O)O [Example 192, (4-{6-[2-(2-Methoxy-4,5-dimethyl-phenyl)-ethylamino]-pyrimidin-4-yl}-2-propyl-phenyl)-acetic acid]
25 | 322 | 145 | COc1cc(C)c(C)cc1CCNc1cc(-c2ccc(CC(=O)O)c(SC)c2)ncn1 [Example 191, (4-{6-[2-(2-Methoxy-4,5-dimethyl-phenyl)-ethylamino]-pyrimidin-4-yl}-2-methylsulfanyl-phenyl)-acetic acid]
26 | 258 | 461 | CCOc1c(CC(=O)O)ccc(-c2cc(NCCc3c(F)cc(Br)cc3F)ncn2)c1F [Example 175, (4-{6-[2-(4-Bromo-2,6-difluoro-phenyl)-ethylamino]-pyrimidin-4-yl}-2-ethoxy-3-fluoro-phenyl)-acetic acid]
27 | 231 | 286 | CCCc1cc(-c2cc(NCCc3ccc(OC(F)F)cc3OC)ncn2)ccc1C(=O)O [Example 222, 4-{6-[2-(4-Difluoromethoxy-2-methoxy-phenyl)-ethylamino]-pyrimidin-4-yl}-2-propyl-benzoic acid]
28 | 184 | 62 | CCOc1cc(C(F)(F)F)ccc1CCNc1cc(-c2ccc(CC(=O)O)c(OCC)c2)ncn1 [Example 214, (2-Ethoxy-4-{6-[2-(2-ethoxy-4-trifluoromethyl-phenyl)-ethylamino]-pyrimidin-4-yl}-phenyl)-acetic acid]
29 | 163 | 283 | CCOc1cc(-c2cc(NCCc3cc(C)c(C(F)F)cc3OC)ncn2)ccc1C(=O)O [Example 199, 4-{6-[2-(4-Difluoromethyl-2-methoxy-5-methyl-phenyl)-ethylamino]-pyrimidin-4-yl}-2-ethoxy-benzoic acid]
30 | 140 | 315 | CCOc1cc(-c2cc(NCCc3cc(F)c(F)cc3OC)ncn2)sc1C(=O)O [Example 179, 5-{6-[2-(4,5-Difluoro-2-methoxy-phenyl)-ethylamino]-pyrimidin-4-yl}-3-ethoxy-thiophene-2-carboxylic acid]
31 | 140 | 482 | CCCc1cc(-c2cc(NCCc3c(C)cc(C)cc3OC)ncn2)ccc1C(=O)O [Example 201, 4-{6-[2-(2-Methoxy-4,6-dimethyl-phenyl)-ethylamino]-pyrimidin-4-yl}-2-propyl-benzoic acid]
32 | 126 | 343 | CCOc1cc(-c2cc(NCCc3c(F)cccc3OC)ncn2)sc1C(=O)O [Example 177, 3-Ethoxy-5-{6-[2-(2-fluoro-6-methoxy-phenyl)-ethylamino]-pyrimidin-4-yl}-thiophene-2-carboxylic acid]
33 | 81 | 273 | COc1cc(F)c(CCNc2cc(-c3ccc(C(=O)O)c(SC)c3)ncn2)c(F)c1 [Example 229, 4-{6-[2-(2,6-Difluoro-4-methoxy-phenyl)-ethylamino]-pyrimidin-4-yl}-2-methylsulfanyl-benzoic acid]
34 | 37 | 23 | CCOc1cc(-c2cc(NCCc3ccc(OC(F)F)cc3OC)ncn2)sc1C(=O)O [Example 224, 5-{6-[2-(4-Difluoromethoxy-2-methoxy-phenyl)-ethylamino]-pyrimidin-4-yl}-3-ethoxy-thiophene-2-carboxylic acid]
